Reference: US9145397B2, “Process for the preparation of 1-(2-methyl-4-(2,3,4,5-tetrahydro-1-benzazepin-1-ylcarbonyl) benzylcarbamoyl)-L-proline-N, N-dimethylamide” (Vantia Limited, priority 2011, dated 2015)

Assays:
vasopressin V2 receptor = target: T1, vasopressin V2 receptor (Rattus norvegicus, UniProt Q00788); test: in vivo assay described in PCT/GB2001/000023 (inhibition of urine output); details: at 1 hour; dosed at 1 mg/Kg
T1 construct: from tissue; host or cells: whole animal, in vivo (endogenous receptor)
Text: The ability of the crystalline form of the invention to agonise the vasopressin V2 receptor may be determined using the in vivo assay described in PCT/GB2001/000023.

[1] = Gravimetric Vapour Sorption Analysis (GVA); type: physicochemical; details: amorphous solid prepared as in PCT/GB2001/000023
Text: 1-(2-methyl-4-(2,3,4,5-tetrahydro-1-benzazepin-1-ylcarbonyl)benzylcarbamoyl)-L-proline-N,N-dimethylamide was first described in international patent application WO 2001/049682 (PCT/GB2001/000023). […] Moreover, scanning electron micrographs (SEM) of this amorphous form show it to consist of irregular, predominantly large (>5 μm in diameter) aggregates. These properties of the amorphous form render it less suitable for use in a manufacturing process.

T1 sequence (Q00788 whole entry): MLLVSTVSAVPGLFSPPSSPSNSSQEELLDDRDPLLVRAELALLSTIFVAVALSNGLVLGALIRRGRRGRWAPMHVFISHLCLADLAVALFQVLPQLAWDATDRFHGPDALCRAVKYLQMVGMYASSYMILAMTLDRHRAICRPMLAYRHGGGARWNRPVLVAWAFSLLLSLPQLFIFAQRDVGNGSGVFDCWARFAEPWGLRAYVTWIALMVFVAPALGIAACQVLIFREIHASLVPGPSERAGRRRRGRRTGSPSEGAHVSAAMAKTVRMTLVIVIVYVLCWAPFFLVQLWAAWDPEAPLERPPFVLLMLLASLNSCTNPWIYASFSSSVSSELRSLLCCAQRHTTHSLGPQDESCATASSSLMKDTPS

Row | inhibition of urine output (vasopressin V2 receptor) | hygroscopicity by Gravimetric Vapour Sorption Analysis (GVA) [1] | SMILES
1 | 82% | – | Cc1cc(C(=O)N2CCCCc3ccccc32)ccc1CNC(=O)N1CCC[C@H]1C(=O)N(C)C [1-(2-methyl-4-(2,3,4,5-tetrahydro-1-benzazepin-1-ylcarbonyl)benzylcarbamoyl)-L-proline-N,N-dimethylamide]
2 | – | hygroscopic | Cc1cc(C(=O)N2CCCCc3ccccc32)ccc1CNC(=O)N1CCC[C@H]1C(=O)N(C)C [amorphous form, 1-(2-methyl-4-(2,3,4,5-tetrahydro-1-benzazepin-1-ylcarbonyl)benzylcarbamoyl)-L-proline-N,N-dimethylamide]
